Results published in US10206394B2, “Herbicidal compounds” (Syngenta Participations AG, priority 2014, dated 2019).
Like-named read-outs stand apart in the source and are kept apart here.

Key:
Assay type in all cases: in vivo
[1] = test system: Winter Wheat variety 'Hereward'; assay: Glasshouse assay for crop safety, post-emergence, +/- safener cloquintocet-mexyl (CQC), percentage phytotoxicity; conditions: 250 g/ha, evaluated after 13 days, 100=total damage, 0=no damage; for Post-emergence Crop Selectivity, percentage phytotoxicity, Wheat +CQC: with safener cloquintocet-mexyl (CQC) seed treatment 0.5 g/kg seed; for Post-emergence Crop Selectivity, percentage phytotoxicity, Wheat − CQC: without safener cloquintocet-mexyl (CQC)
Excerpt: Test—Glasshouse Assay for Crop Safety.
Seeds of the Winter Wheat variety ‘Hereward’ were seed treated with a wettable powder formulation of the cereal herbicide safener, cloquintocet mexyl, at a rate of 0.5 grams per kilogram of dry seed prior to the initiation of glasshouse testing. Three seeds were sown per 1.5 inch plastic pot into a sandy loam soil at a depth of 1 cm, 8 days prior to application of the test compounds and was watered and grown under controlled conditions in a glasshouse (at 24/16° C., day/night; 14 hours light; 65% humidity). The plants were sprayed Post-emergence with an aqueous spray solution derived from the formulation of the technical active ingredient in acetone/water (50:50) solution containing 0.5% Tween 20 (polyoxyethelyene sorbitan monolaurate, CAS RN 9005-64-5).
The test plants were then grown in a glasshouse under controlled conditions (at 24/16° C., day/night; 14 hours light; 65% humidity) and watered twice daily. After 13 days for pre and post-emergence, the test was evaluated (100=total damage to plant; 0=no damage to plant).

Avena fatua (AVEFA) = assay: Glasshouse assay for herbicidal activity (pre- and post-emergence), percentage phytotoxicity; conditions: Avena fatua, Rate 250 g/ha, 100%=total damage, 0%=no damage
Outline: (§1)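 Potted test plants in standard soil received the compound pre-emergence (day 1) or post-emergence (about day 12). Evaluation: visual damage score from 0% (none) to 100% (total), 15 days after application post-emergence, 20 days pre-emergence.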

Lolium perenne (LOLPE) = assay: as above; conditions: Lolium perenne, Rate 250 g/ha, 100%=total damage, 0%=no damage
Outline: as §1

[2] = test system: Echinochloa crus-galli (ECHCG); assay: as above; conditions: Echinochloa crus-galli, Rate 250 g/ha, 100%=total damage, 0%=no damage
Outline: as §1

[3] = test system: Alopecurus myosuroides (ALOMY); assay: as above; conditions: Alopecurus myosuroides, Rate 250 g/ha, 100%=total damage, 0%=no damage
Outline: as §1

[4] = post-emergence, 360 h, post-emergence, assessed visually 15 DAA, read-out: Post-emergence herbicidal activity (percentage phytotoxicity) AVEFA POST
[5] = pre-emergence, 480 h, pre-emergence, assessed visually 20 DAA, read-out: Pre-emergence herbicidal activity (percentage phytotoxicity) AVEFA PRE
[6] = post-emergence, 360 h, post-emergence, assessed visually 15 DAA, read-out: Post-emergence herbicidal activity (percentage phytotoxicity) LOLPE POST
[7] = pre-emergence, 480 h, pre-emergence, assessed visually 20 DAA, read-out: Pre-emergence herbicidal activity (percentage phytotoxicity) LOLPE PRE
[8] = post-emergence, 360 h, post-emergence, assessed visually 15 DAA, read-out: Post-emergence herbicidal activity (percentage phytotoxicity) ECHCG POST
[9] = pre-emergence, 480 h, pre-emergence, assessed visually 20 DAA, read-out: Pre-emergence herbicidal activity (percentage phytotoxicity) ECHCG PRE
[10] = post-emergence, 360 h, post-emergence, assessed visually 15 DAA, read-out: Post-emergence herbicidal activity (percentage phytotoxicity) ALOMY POST
[11] = pre-emergence, 480 h, pre-emergence, assessed visually 20 DAA, read-out: Pre-emergence herbicidal activity (percentage phytotoxicity) ALOMY PRE

SMILES | Post-emergence Crop Selectivity, percentage phytotoxicity, Wheat +CQC [1] [%] | Post-emergence Crop Selectivity, percentage phytotoxicity, Wheat − CQC [1] [%] | pest or weed control at 250 g/ha (Avena fatua (AVEFA); [4]) [%] | pest or weed control at 250 g/ha (Avena fatua (AVEFA); [5]) [%] | pest or weed control at 250 g/ha (Lolium perenne (LOLPE); [6]) [%] | pest or weed control at 250 g/ha (Lolium perenne (LOLPE); [7]) [%] | pest or weed control at 250 g/ha [2, 8] [%] | pest or weed control at 250 g/ha [2, 9] [%] | pest or weed control at 250 g/ha [3, 10] [%] | pest or weed control at 250 g/ha [3, 11] [%]
Cc1cc(-n2cc(Cl)cn2)cc(C)c1C1C(=O)CC(CC(=O)NC2CCCC2)C1=O (centres unmarked) [Compound A70] | 20 | 70 | 70 | 70 | 70 | 70 | 90 | 100 | 90 | 70
Cc1cc(-n2cc(Cl)cn2)cc(C)c1C1C(=O)CC(CC(=O)NC2(c3ccccn3)CC2)C1=O (centres unmarked) [Compound A73] | 20 | 80 | 80 | 10 | 40 | 30 | 90 | 90 | 70 | 70
Cc1cc(-c2ccc(F)cn2)cc(C)c1C1C(=O)CC(CC(=O)NC(C)(C)C)C1=O (centres unmarked) [Compound A80] | 20 | 70 | 100 | 90 | 100 | 100 | 100 | 100 | 100 | 100
Cc1cc(-c2ncc(F)cc2F)cc(C)c1C1C(=O)CC(CC(=O)NC(C)(C)C)C1=O (centres unmarked) [Compound A85] | 10 | 80 | 100 | 80 | 90 | 100 | 100 | 90 | 100 | 100
Cc1cc(-c2ncc(F)cn2)cc(C)c1C1C(=O)CC(CC(=O)NCc2cccc(Cl)c2)C1=O (centres unmarked) [Compound A138] | 40 | 70 | 100 | 100 | 100 | 100 | 100 | 100 | 90 | 90
Cc1cc(-c2cncnc2)cc(C)c1C1C(=O)CC(CC(=O)NCc2cccc(Cl)c2)C1=O (centres unmarked) [Compound A142] | 50 | 70 |  | 0 | 20 | 20 | 60 | 30 |  | 0
Cc1cc(-c2ncc(F)cn2)cc(C)c1C1C(=O)CC(CC(=O)NCc2cccc(C(F)(F)F)c2)C1=O (centres unmarked) [Compound A145] | 30 | 60 | 100 | 100 | 90 | 100 | 100 | 100 | 100 | 100
